Test results published in ChEMBL document CHEMBL3988442, “University of Dundee, Small-Polar-MMV Screening Library” (2021).

Target: Lysine--tRNA ligase (Plasmodium falciparum (isolate 3D7), UniProt Q8IDJ8)
Experiment: Pf-KRS-1 (Lysyl-RNA Synthetase-1, KRS-1, cytosolic KRS) from Plasmodium falciparum. Inhibitor assay, 384 well plate, luminescence read.
Assay type: functional

Chain of Lysine--tRNA ligase (Q8IDJ8 whole entry): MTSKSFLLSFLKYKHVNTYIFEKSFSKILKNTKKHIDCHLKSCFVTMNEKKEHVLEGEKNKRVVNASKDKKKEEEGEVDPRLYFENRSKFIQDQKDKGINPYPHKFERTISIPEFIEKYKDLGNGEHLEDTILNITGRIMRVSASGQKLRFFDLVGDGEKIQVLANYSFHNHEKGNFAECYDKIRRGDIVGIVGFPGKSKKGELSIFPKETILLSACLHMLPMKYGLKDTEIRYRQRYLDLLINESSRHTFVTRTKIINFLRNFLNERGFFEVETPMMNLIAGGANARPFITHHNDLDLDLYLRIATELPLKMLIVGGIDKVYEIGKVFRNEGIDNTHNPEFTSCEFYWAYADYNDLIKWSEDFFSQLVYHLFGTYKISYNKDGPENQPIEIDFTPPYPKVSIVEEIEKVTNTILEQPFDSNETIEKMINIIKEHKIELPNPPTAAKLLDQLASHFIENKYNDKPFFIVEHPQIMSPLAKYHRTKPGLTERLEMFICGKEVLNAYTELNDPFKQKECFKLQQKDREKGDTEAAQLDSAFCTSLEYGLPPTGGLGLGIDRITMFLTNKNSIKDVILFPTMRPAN

| Structure (SMILES) | IC50 |
| --- | --- |
| CC(NC(=O)NCCCOc1ccccc1F)c1nncn1C (stereo not drawn) | > 50.1 µM |
| COc1cccc(-n2c(C)cc(C(=O)NS(C)(=O)=O)c2C)c1 | > 50.1 µM |
| CSc1cc2c(cc1NC(=O)NCC(C)(C)C(N)=O)OCCO2 | > 50.1 µM |
| Cn1cc(NC(=O)c2ccccn2)cc(Br)c1=O | > 50.1 µM |
| CCc1cc2cc(OC)c(OC)cc2nc1SCCN1CCCCC1 | > 50.1 µM |
| Cc1cc(C)c2nc(CNC3CCCNC3=O)cc(O)c2c1 (stereo not drawn) | > 50.1 µM |
| O=C(c1ccccn1)N1CCCN(Cc2nnc(C3CC3)o2)CC1 | > 50.1 µM |
| Cc1cc2ccccc2n1CCC(=O)N1CCC[C@H]1C(N)=O | > 50.1 µM |
| Cc1nc[nH]c1CN1CCn2nc(CN3Cc4ccccc4C3)cc2C1 | > 50.1 µM |
| Cc1cnn(CCNCC(O)COc2ccc(Cl)cc2)c1 (stereo not drawn) | > 50.1 µM |
| Cc1cnc(N2CCN(C)c3ncccc3C2)nc1 | > 50.1 µM |
| Cc1cnn(CCCN2C(=O)CCc3ccccc32)c1 | > 50.1 µM |
| CSc1cccc(CN(C)C(=O)Nc2nc(C)n(C)n2)c1 | > 50.1 µM |
| Cc1nnc(NCCC(=O)N(C)Cc2ccccc2)c(C#N)c1C | > 50.1 µM |
| O=C(O)c1cc(-c2ccncc2F)cc(S(=O)(=O)N2CCCCCC2)c1 | > 50.1 µM |
| CN(C)c1cc2c(nn1)CCN(C(=O)C1Cc3ccccc3S1)C2 (stereo not drawn) | > 50.1 µM |
| CC(C)CN1C(=O)C2(CCCC2)NC1c1cn(C)c(=O)n(C)c1=O (stereo not drawn) | > 50.1 µM |
| Cc1ncc2c(n1)CN(CC1CCCCO1)CC2 (stereo not drawn) | 35.9 µM |
| O=C(c1cnccn1)N1C[C@@H](c2ccccc2)[C@@]2(CCNC2=O)C1 | > 50.1 µM |
| COC(=O)c1ccc2ccn(CC3CCCCO3)c(=O)c2c1 (stereo not drawn) | 38.2 µM |
| O=C(c1nc(=O)[nH][nH]1)N1CCC2(CCCCC2)C1 | > 50.1 µM |
| Cc1nc(N(C)CCCc2nccn2C)c2nc(C)oc2n1 | > 50.1 µM |
| O=C1CC(c2ccc(C(=O)O)cc2)c2ncn(-c3cccc(F)c3)c2N1 (stereo not drawn) | > 50.1 µM |
| O=C(NCCc1ccco1)Nc1cc(C(F)(F)F)c[nH]c1=O | > 50.1 µM |
| CCOc1ccc(CC(CNC(=O)c2ccoc2C)C(N)=O)cc1 (stereo not drawn) | > 50.1 µM |

| Structure (SMILES) | IC50 |
| --- | --- |
| CCc1nc(C2CCCN2Cc2noc(Cc3ccccc3)n2)no1 (stereo not drawn) | > 50.1 µM |
| Cn1cc(C(C)(O)CNc2ccc(Cl)c(C#N)n2)cn1 (stereo not drawn) | > 50.1 µM |
| O=S(=O)(NC1CCC12CCN(CC1CCOCC1)CC2)c1ccccc1 (stereo not drawn) | > 50.1 µM |
| CN(C)Cc1cnc2n1CCN(C(=O)Cc1ccc(F)cc1)CC2 | > 50.1 µM |
| Cc1noc(C)c1CN1CCOC2(CCCN(c3nncs3)C2)C1 (stereo not drawn) | > 50.1 µM |
| Cc1cc(C)c2nc(CNC3CCNC3=O)cc(O)c2c1 (stereo not drawn) | > 50.1 µM |
| Cc1ccc(CS(=O)(=O)NCc2ccco2)cc1 | > 50.1 µM |
| O=C(NCCc1ccccn1)C1=NN(c2ccccc2)C(=O)CN1 | > 50.1 µM |
| COc1c(F)ccc(C(=O)N2CC[C@H](CO)[C@@H](O)C2)c1F | > 50.1 µM |
| Cn1c(=O)c2c(n3ncnc13)NC(=O)CC2c1ccc(F)cc1 (stereo not drawn) | > 50.1 µM |
| Cc1cc(CN(C)C(=O)c2cccc(N3CCCC3=O)c2)no1 | > 50.1 µM |
| Cc1cc(C(=O)N2CCCC3(COCCN(CCN(C)C)C3)C2)no1 (stereo not drawn) | > 50.1 µM |
| CCn1ncc2c1CCCC2NCc1ccc(OC)c(C)c1 (stereo not drawn) | > 50.1 µM |
| CCN(Cc1ccc2c(c1)OCO2)C(=O)NCc1nc(C)cs1 | > 50.1 µM |
| COc1c(C)cnc(CN(C)C(=O)c2cccnc2N(C)C)c1C | > 50.1 µM |
| Cc1cc2ccccc2n1CCC(=O)N1CCCCC1CCO (stereo not drawn) | > 50.1 µM |
| CC(O)(CNc1ccc(Cl)c(C#N)n1)c1ccsc1 (stereo not drawn) | 44 µM |
| CN1[C@H](Cn2cncn2)C[C@@H]2CN(Cc3cccc(C#N)c3)CC[C@@H]21 | > 50.1 µM |
| N#CCc1ccc(OCC(=O)N2CCCC(n3cccn3)C2)cc1 (stereo not drawn) | > 50.1 µM |
| CSCCC(O)C(=O)N1CCCN(Cc2cccnc2)CC1 (stereo not drawn) | > 50.1 µM |
| FC(F)(F)c1ccc(CN2CCN(Cc3cscn3)CC2)cc1 | > 50.1 µM |
| O=C(COCCc1ccccc1)N1CCCC(n2cccn2)C1 (stereo not drawn) | > 50.1 µM |
| O=C(NCC1(O)CCCC1)c1ccc2nsnc2c1 | > 50.1 µM |
| Cc1cnn(CC2CCCN2C(=O)c2cccc3c2OCO3)c1 (stereo not drawn) | > 50.1 µM |
| CC(C)c1nccn1C1CCCN(C(=O)c2cccc3[nH]ncc23)C1 (stereo not drawn) | > 50.1 µM |

| Structure (SMILES) | IC50 |
| --- | --- |
| CNS(=O)(=O)c1ccc(CNC(=O)NCC2CCC2)cc1 | > 50.1 µM |
| CNc1ncc2c(n1)CN(C1CCCC1)C2=O | > 50.1 µM |
| Cc1noc(C2CCCN(C(=O)c3cc(Cl)ccc3F)C2)n1 (stereo not drawn) | > 50.1 µM |
| COc1ccc(NC(=O)N2CCCC2c2ccncc2)cn1 (stereo not drawn) | > 50.1 µM |
| Cc1ccc([C@@H]2CN(C(=O)c3cc(C)no3)C[C@H]2NC(=O)C2CC2)cc1 | > 50.1 µM |
| Cn1ncc2c(=O)[nH]c(CN3CCCC3c3cccs3)nc21 (stereo not drawn) | > 50.1 µM |
| CC(C)NC(=O)N1CCc2c(CNc3ncccn3)cncc2C1 | > 50.1 µM |
| c1ccc(SCCN2CCCC(Cn3ccnc3)C2)cc1 (stereo not drawn) | > 50.1 µM |
| Cc1nc(CN2CCCC(CCc3ccccc3C(F)(F)F)C2)co1 (stereo not drawn) | > 50.1 µM |
| O=C(Cc1ccsc1)N1CCCC(c2n[nH]c3ncccc23)C1 (stereo not drawn) | > 50.1 µM |
| Cc1nc(N(C)CCCc2nccn2C)c2c(C)nn(C)c2n1 | > 50.1 µM |
| Cc1csc(CNC(=O)NCc2ccc3c(c2)OCCO3)n1 | > 50.1 µM |
| COc1cccc(C(=O)N(C)Cc2ncc(C)c(OC)c2C)c1OC | > 50.1 µM |
| CCCn1ccnc1CN1CCC(Oc2ccc(Cl)cc2)(C(=O)O)CC1 | > 50.1 µM |
| O=c1c(CN2CCOCC2)coc2ccc(Cl)cc12 | > 50.1 µM |
| c1csc(CN2CCCN(c3ncnc4[nH]ccc34)CC2)c1 | > 50.1 µM |
| O=C1COc2cc(C(=O)NCc3ccc(Cl)s3)ccc2N1 | 17.5 µM |
| CC(C)C(=O)NC1CCN(c2cccc(OC(F)(F)F)c2)C1=O (stereo not drawn) | > 50.1 µM |
| O=C(NCC1(O)CCSCC1)c1ccoc1 | > 50.1 µM |
| O=C1COc2ccccc2N1CCCn1cnnn1 | > 50.1 µM |
| Cc1nc(C)c(C)c(N(C)CCCc2nccn2C)n1 | > 50.1 µM |
| O=C([C@H]1CCCO1)N1CCc2ncnc(NC3CC3)c2CC1 | > 50.1 µM |
| CCc1ccc(CN2CCN(C(=O)C(C)C)[C@@H]3CS(=O)(=O)C[C@@H]32)cc1 | > 50.1 µM |
| Cc1nn(C)c(C)c1NC(=O)CN1CCOC(Cn2cccn2)C1 (stereo not drawn) | > 50.1 µM |
| CCOc1ccc(CC(CNC(=O)c2ccc(C)o2)C(N)=O)cc1 (stereo not drawn) | > 50.1 µM |

| Structure (SMILES) | IC50 |
| --- | --- |
| Cc1ncc(CN2CCOC(CN(C)c3cccnn3)C2)s1 (stereo not drawn) | > 50.1 µM |
| CN1C(=O)CC2(CCN(S(=O)(=O)c3cccs3)CC2)c2ccccc21 | > 50.1 µM |
| COc1c(C)cnc(CN(C)C(=O)c2ccccc2O)c1C | > 50.1 µM |
| CCCOc1ccc(CNC(=O)N2CCC(C(N)=O)C2)cc1 (stereo not drawn) | > 50.1 µM |
| NS(=O)(=O)c1ccc(NC(=O)CSc2ccc3c(c2)CCC3)cc1 | > 50.1 µM |
| O=C(CCNC(=O)c1ccoc1)Nc1cc(F)cc(F)c1 | > 50.1 µM |
| Cc1nc(CN2CCCC(N(C)Cc3nc(CC(C)C)no3)C2)no1 (stereo not drawn) | > 50.1 µM |
| CN(C)CCO[C@H]1C[C@@H](O)C12CCN(c1nccc3ccccc13)CC2 | > 50.1 µM |
| CCN1CC(C(=O)N2CCN(CCn3cccc3)CC2)CC1=O (stereo not drawn) | > 50.1 µM |
| COc1ccc(C(=O)N2CCO[C@H]3[C@@H](OCC4CC4)CC[C@@H]32)cc1F | > 50.1 µM |
| Cc1cc(C)n(C2CN(c3ncnc4[nH]ccc34)C2)n1 | > 50.1 µM |
| C/C=C(\C)CN1C[C@H](NC(=O)CCOC)[C@@H](c2ccc(C)o2)C1 | > 50.1 µM |
| COCCOc1ccc(NC(=O)N2CCCC2c2cccs2)cn1 (stereo not drawn) | > 50.1 µM |
| CC(C)CN1Cc2nc(N)ncc2C1=O | 35.6 µM |
| COc1ccc(C2CCCN2C(=O)Nc2ccc(OC)nc2)cc1 (stereo not drawn) | > 50.1 µM |
| COCCCN1CCCC12CCN(Cc1cccnc1OC)CC2 | > 50.1 µM |
| O=C1CC(c2ccc(O)cc2)c2c(c(C(=O)O)cn2-c2ccccc2)N1 (stereo not drawn) | > 50.1 µM |
| Cc1ccc(CN2CCN(Cc3ccncc3)[C@@H]3CS(=O)(=O)C[C@@H]32)cc1 | > 50.1 µM |
| CO[C@H]1CC[C@H]2[C@H]1OCCN2C(=O)CC1=CCCCC1 | > 50.1 µM |
| COC(=O)c1ccc2ccn(CC3COCCO3)c(=O)c2c1 (stereo not drawn) | > 50.1 µM |
| Cc1ccc(-n2nnc(C(=O)NCC3CCCCC3)n2)cc1 | > 50.1 µM |
| Cc1cc(C(N)=O)ccc1NC(=O)c1nc(N2CCCC2)ncc1Cl | > 50.1 µM |
| O=C(O)c1cc(-c2cc[nH]n2)cc(S(=O)(=O)N2CCCCCC2)c1 | > 50.1 µM |
| Cc1csc(CNC(=O)N(C)Cc2ccc3c(c2)OCCO3)n1 | > 50.1 µM |
| CCn1cc2c(n1)C(COCC1CC1)CN(C(=O)c1cc(C)on1)C2 (stereo not drawn) | > 50.1 µM |

| Structure (SMILES) | IC50 |
| --- | --- |
| CC(=O)c1cnc(N(C)Cc2cc(C)cc(C)n2)nc1C | > 50.1 µM |
| COc1ccc(OC)c(C(=O)N(C)Cc2ncc(C)c(OC)c2C)c1 | > 50.1 µM |
| CCOCC1CN(C(=O)c2cnoc2C)Cc2cn(CC3CC3)nc21 (stereo not drawn) | > 50.1 µM |
| O=C(CC1CCCC1)N1CC[C@H]2[C@H]1CCN2c1nncs1 | > 50.1 µM |
| CN(C)CCNC(=O)c1ccc(S(=O)(=O)N[C@@H]2CCNC2)cc1 | > 50.1 µM |
| O=C([C@@H]1C[C@H]2[C@H](CCN2Cc2nccs2)O1)N1CCOCC1 | > 50.1 µM |
| O=C(CCNC(=O)c1ccoc1)Nc1cc(F)ccc1F | > 50.1 µM |
| Cc1ccc(O)c(CNCC(C)c2nc3ccccc3o2)n1 (stereo not drawn) | > 50.1 µM |
| COc1ccc(CC(=O)N2CCCC(c3nncn3C)C2)cc1 (stereo not drawn) | > 50.1 µM |
| CC(C)c1nccn1C1CCCN(C(=O)c2ccc3c(c2)COC3)C1 (stereo not drawn) | > 50.1 µM |
| O=C(CC1COCCN1)N1CCC(N2CCc3ccccc3C2)CC1 (stereo not drawn) | > 50.1 µM |
| CC(=O)c1cc(CC(=O)N2CCN(S(=O)(=O)c3ccccc3)CC2)cs1 | > 50.1 µM |
| Cc1cccc(OCCCNC(=O)NC(C)c2nncn2C)c1 (stereo not drawn) | > 50.1 µM |
| O=c1[nH]c2c(c(=O)n1C1CCCCC1)CCC2Nc1ccccc1 (stereo not drawn) | > 50.1 µM |
| CC(NC(=O)NCCOc1ccc(Cl)cc1)c1nncn1C (stereo not drawn) | > 50.1 µM |
| Cc1cccc(NC2CCc3c2[nH]c(=O)n(C2CCCCC2)c3=O)c1C (stereo not drawn) | 2.45 µM |
| c1ncc2c(n1)CN(CC1CCCCO1)CC2 (stereo not drawn) | 32.7 µM |
| COCC1CN(C(=O)Cc2ccccn2)Cc2ncn(C)c21 (stereo not drawn) | > 50.1 µM |
| Cc1ccc(C)c2c(O)cc(CN[C@H]3CCCCNC3=O)nc12 | > 50.1 µM |
| c1ccc(CCN2CCCC(Cn3ccnc3)C2)cc1 (stereo not drawn) | > 50.1 µM |
| O=C(Cc1ccc(Cl)s1)Nc1ccc2c(c1)C(=O)NC2=O | > 50.1 µM |
| O=C(O)c1c(-c2ccoc2)ncc2c1CCN(C1CCOC1)C2 (stereo not drawn) | > 50.1 µM |
| COCCN1CCOCC12CCN(c1ccc(C#N)cc1)CC2 | > 50.1 µM |
